From the NIST ThermoML archive (doi:10.1016/j.tca.2007.02.022)
Where “and” joins values, the source holds several entries; their conditions need not be identical. Equal entries are not always repeated.

What was measured:
[1] = Molar enthalpy of transition or fusion; details: Crystal
[2] = Crystal
[3] = molar heat capacity at constant pressure; details: 101.33 kPa

OC[C@@H](O)[C@H](O)[C@@H](O)CO [xylitol]
Details | Molar enthalpy of transition or fusion | Triple point temperature
[1] | 33.7 kJ/mol and 33.3 kJ/mol | –
[2] | – | 367.52 K and 369.06 K

[3]
Details | molar heat capacity at constant pressure [J/K/mol]
80 K, Crystal | 63.67
80.07 K, Crystal | 62.71
83.61 K, Crystal | 65.01
85 K, Crystal | 66.43
86.53 K, Crystal | 67.25
89.49 K, Crystal | 69.29
90 K, Crystal | 69.62
92.49 K, Crystal | 71.54
95 K, Crystal | 73.13
95.54 K, Crystal | 73.71
98.51 K, Crystal | 75.94
100 K, Crystal | 76.86
101.4 K, Crystal | 78.2
104.34 K, Crystal | 80.53
105 K, Crystal | 80.73
107.35 K, Crystal | 82.78
110 K, Crystal | 84.68
110.28 K, Crystal | 84.97
113.27 K, Crystal | 87.33
115 K, Crystal | 88.65
116.32 K, Crystal | 89.39
119.31 K, Crystal | 91.73
120 K, Crystal | 92.61
122.25 K, Crystal | 93.79
125 K, Crystal | 96.54
125.24 K, Crystal | 96.15
128.3 K, Crystal | 98.38
130 K, Crystal | 100.4
131.31 K, Crystal | 100.5
134.27 K, Crystal | 102.7
135 K, Crystal | 104.2
137.29 K, Crystal | 104.8
140 K, Crystal | 108
140.38 K, Crystal | 106.6
143.41 K, Crystal | 109
145 K, Crystal | 111.7
146.39 K, Crystal | 111.2
149.42 K, Crystal | 113.3
150 K, Crystal | 115.3
152.51 K, Crystal | 115.5
155 K, Crystal | 118.9
155.56 K, Crystal | 117.7
158.57 K, Crystal | 119.8
160 K, Crystal | 122.4
161.56 K, Crystal | 121.9
164.6 K, Crystal | 123.9
165 K, Crystal | 126
167.69 K, Crystal | 126
170 K, Crystal | 129.5
170.76 K, Crystal | 129.7
173.84 K, Crystal | 132.3
175 K, Crystal | 133
176.88 K, Crystal | 134
179.99 K, Crystal | 136
180 K, Crystal | 136.6
183.16 K, Crystal | 138
185 K, Crystal | 140.1
186.3 K, Crystal | 140.4
190 K, Crystal | 143.7
192.5 K, Crystal | 144.2
195 K, Crystal | 147.3
195.64 K, Crystal | 146.3
198.85 K, Crystal | 148.5
200 K, Crystal | 151
202.03 K, Crystal | 150.3
205 K, Crystal | 154.7
205.18 K, Crystal | 152.4
208.33 K, Crystal | 155.1
210 K, Crystal | 158.4
211.45 K, Crystal | 157.1
214.63 K, Crystal | 159.5
215 K, Crystal | 162.1
217.88 K, Crystal | 161.4
220 K, Crystal | 165.9
221.1 K, Crystal | 163.8
224.3 K, Crystal | 165.8
225 K, Crystal | 169.6
227.46 K, Crystal | 168.2
230 K, Crystal | 173.4
230.62 K, Crystal | 170.6
233.78 K, Crystal | 172.5
235 K, Crystal | 177.1
236.94 K, Crystal | 174
240 K, Crystal | 180.8
240.13 K, Crystal | 176.1
243.21 K, Crystal | 178.2
245 K, Crystal | 184.4
246.34 K, Crystal | 180.8
249.48 K, Crystal | 182.2
250 K, Crystal | 188
252.61 K, Crystal | 184.3
255 K, Crystal | 191.5
255.78 K, Crystal | 186.3
258.93 K, Crystal | 188.6
260 K, Crystal | 195
262.07 K, Crystal | 191
265 K, Crystal | 198.3
265.19 K, Crystal | 193.2
268.29 K, Crystal | 195.2
270 K, Crystal | 201.6
271.44 K, Crystal | 197.5
274.65 K, Crystal | 199.6
275 K, Crystal | 204.8
277.84 K, Crystal | 201.9
280 K, Crystal | 208
281.02 K, Crystal | 204.7
284.19 K, Crystal | 207.3
285 K, Crystal | 211.1
287.39 K, Crystal | 210.2
290 K, Crystal | 214.2
290.63 K, Crystal | 212.7
293.83 K, Crystal | 215.1
295 K, Crystal | 217.4
297.06 K, Crystal | 217.8
298.15 K, Crystal | 219.4
300 K, Crystal | 220.7
300.4 K, Crystal | 220.6
303.7 K, Crystal | 223.9
305 K, Crystal | 224.2
310 K, Crystal | 227.9
310.42 K, Crystal | 229.1
314.19 K, Crystal | 232.7
315 K, Crystal | 232.1
318.33 K, Crystal | 237.1
320 K, Crystal | 236.9
322.65 K, Crystal | 240.3
325 K, Crystal | 242.4
326.89 K, Crystal | 244.7
330 K, Crystal | 248.8
331.21 K, Crystal | 251.3
335 K, Crystal | 256.3
335.57 K, Crystal | 258.1
339.95 K, Crystal | 261.8
340 K, Crystal | 265.3
344.29 K, Crystal | 261.9
345 K, Crystal | 275.9
348.52 K, Crystal | 262.4
350 K, Crystal | 288.6
352.73 K, Crystal | 271.3
355 K, Crystal | 303.6
356.88 K, Crystal | 286.2
360 K, Crystal | 321.5
360.92 K, Crystal | 323.9
370 K, Liquid | 420.6
372.89 K, Liquid | 422
375 K, Liquid | 423.4
376.72 K, Liquid | 424.4
380 K, Liquid | 426.2
380.91 K, Liquid | 427
385 K, Liquid | 429
385.11 K, Liquid | 428.8
390 K, Liquid | 431.8
